What was measured:
[1] = test system: 4 mm punch wound on the dorsal surface; assay: Topical applications for wound healing in mice (4 mm punch wound, three dietary groups); format: in vivo, Balb/c mice; settings: 100 μM topical, in place of uracil; with or without CCM; four times over two weeks
From the text: Balb/c mice were divided into three dietary groups (F=normal mouse chow; NF=nucleotide free mouse chow; and NFR=nucleotide free mouse chow supplemented with yeast RNA). Each group was fed before initiation of wounds. After 4 weeks of feeding, a 4 mm punch wound was created on the dorsal surface of each mouse, using a 4 mm biopsy punch. The wounds were coated with four different topical agents: (1) saline; (2) uracil ([…]); (3) saline+CCM; and (4) Uracil+CCM (CCM=crosslinked collagen mesh). CCM (“Collagen Permeable Membrane”) from Accurate Chemical & Scientific Corporation, Catalog No. YIC 152299. Four mm size circles were soaked with appropriate nucleotide or saline solution (4 mm punch wounds) and used to dress the wounds.
Twelve groups were formed from these combinations (n=3). Mice were continued on their respective diets. Wounds were observed visually and photographed at four different times during the period of two weeks. These studies were repeated using a 100 μM concentration of inosine in place of uracil as the topical agent.

[2] = test system: 8 mm full thickness dorsal skin punch wound; assay: Sirolimus dose response on healing of a full thickness skin punch wound; format: in vivo, Balb/c mice
Protocol: Sirolimus is an effective immunosuppressant that has been associated with delayed wound healing. On a full thickness skin murine model of immunosuppression and decreased wound healing, the Sirolimus dose that delayed wound healing was first determined.
Methods: For 2 weeks Balb/c mice were gavage-fed saline, 4 mg/kg, 8 mg/kg or 12 mg/kg Sirolimus (10 per group). After drug loading, an 8 mm in diameter full thickness dorsal skin punch wound was made in each mouse. Every second day digital pictures of the wound were taken and analyzed. After determining the effective Sirolimus dose that causes decreased wound healing and immunosuppression, 40 Balb/c mice were gavaged with 8 mg/kg of Sirolimus every other day. After establishing the punch wounds, the mono and dinucleotides were applied topically daily. The topical treatment was applied using the following formulations (10 mice per group): a mixture of mono and dinucleotides derived from RNA in 0.025%, 0.25% and 2.5% concentrations and one group with KY jelly as control. Every second day a digital picture was taken and wound size measured. P2Y2 receptor expression was qualitatively assessed using immunohistology and receptor specific antibodies. T-test was used to compare the groups.

| Structure (SMILES) | wound healing, wounds observed visually and photographed [1] | effect on wound healing ([2]; 4 mg/kg gavage for 2 weeks) | effect on wound healing ([2]; 8 mg/kg gavage for 2 weeks, day 4 and after) | effect on wound healing ([2]; 12 mg/kg gavage for 2 weeks, day 4 and after) |
| --- | --- | --- | --- | --- |
| OC[C@H]1O[C@@H](n2cnc3c(O)ncnc32)[C@H](O)[C@@H]1O [inosine] | no significant differences from that which was seen with the uracil |  |  |  |
| CO[C@H]1C[C@@H]2CC[C@@H](C)[C@@](O)(O2)C(=O)C(=O)N2CCCC[C@H]2C(=O)O[C@H]([C@H](C)C[C@@H]2CC[C@@H](O)[C@H](OC)C2)CC(=O)[C@H](C)/C=C(\C)[C@@H](O)[C@@H](OC)C(=O)[C@H](C)C[C@H](C)/C=C/C=C/C=C/1C [Sirolimus] |  | no effect on wound healing | delayed wound healing in a significant manner | delayed wound healing in a significant manner |
